Measured values as given in PMC12236907, “A Natural Depsipeptide Antibiotic that Targets the E site of the Bacterial Ribosome” (Research Square, 2025).

Assays:
bacterial translation = conditions: ref [32],[33]; cited from earlier work
Procedure: Bound in its primary site, MKM obstructs placement of C75 and A76 of the CCA end of a deacylated tRNA within the E-site of the large ribosomal subunit, with the most significant overlap of Phe3 of MKM with the 3’ terminal adenine of the E-tRNA (Fig. 3h).

eukaryotic ribosome = conditions: ref [23],[29],[55]; cited from earlier work
Excerpt: Superficially, the mode of action of MKM resembles that of CHX, since MKM also stalls the elongating ribosome. However, the mechanism of translation inhibition by CHX and MKM are likely to be principally different. Because of the small size of CHX, it was proposed to co-accommodate in the E site of the eukaryotic ribosome ...

[1] = tested on: K. pneumoniae ATCC 33495 and C1559; assay: C. elegans – K. pneumoniae in vivo antibiotic activity assay (survival); design: species or system K. pneumoniae in Caenorhabditis elegans; conditions: MKM 64 μg/ml or polymyxin B 25 μg/ml, 6 days, vs DMSO; Log-rank (Mantel–Cox) test
Procedure: A C. elegans double mutant strain, AU37 (glp-4(bn2);sek-1(km4)), was used for this assay due to its enhanced pathogen infection sensitivity and temperature-sensitive sterility. The infection protocol was carried out as previously described, with slight modifications to accommodate our experimental conditions. Standard C. elegans media and protocols were used for the maintenance and growth of worms. To summarize, eggs were collected from gravid adult worms by bleaching and incubated on solid agar plates at 25 °C for 48 hours, until early adulthood. Worms were thoroughly washed with M9 buffer and transferred onto LB agar plates containing lawns of infective K. pneumoniae and incubated for another 24 hours. Worms were then washed from plates and resuspended in M9 to an approximate 2 worm per microlitre concentration. A survival assay was conducted in a 96-well plate with experimental wells containing 15 μl of worms, 80 μl S-basal (5.85 g NaCl, 1 g K2HPO4, 6 g KH2PO4, 1 ml cholesterol (5 mg/ml in ethanol), H2O to 1 litre. Sterilize by autoclaving), and 5 μl of test compound. Plates were sealed with a porous film and incubated at 25°C for a total of 7 days. The number of dead worms were counted every 24 hours to generate a Kaplan-Meier survival curve.

Compound | inhibition of bacterial translation (bacterial translation) | effect on eukaryotic translation (eukaryotic ribosome) | survival benefit in C. elegans (in words) [1]
C/C=C\[C@H](C)[C@H]1O[C@]1(C)[C@@H](O)[C@H]1COC(=O)[C@H](O)[C@@H](OC)[C@H](C)C(=O)[C@H](C)[C@@H](O)/C(C)=C/[C@H](C)C(=O)CC[C@@H](C)C1=O [13-deoxytedanolide] | do not inhibit bacterial translation |  | 
C[C@@H]1C[C@@H]([C@H](O)CC2CC(=O)NC(=O)C2)C(=O)[C@@H](C)C1 [cycloheximide] | do not inhibit bacterial translation | arrests the elongating ribosome | 
C/C(=C\[C@H](C)C(=O)C[C@H](O)CC1CC(=O)NC(=O)C1)[C@@H]1OC(=O)/C=C/CC/C=C/C=C\[C@@H]1C [lactimidomycin] | do not inhibit bacterial translation | captures the ribosomes at start codons but has little effect on translation elongation or termination | 
CC(=O)O[C@@H]1[C@@H](O)[C@H](O[C@H]2[C@H](OC(=O)[C@H]3CC[C@@H]4[C@H](C3)O[C@@]3(C[C@H](OC(=O)/C=C/c5ccccc5)[C@H](C)CO3)[C@]43CO3)O[C@H](C)[C@@H](O)[C@@H]2OC(C)=O)O[C@H](C)[C@H]1O [phyllanthoside] | do not inhibit bacterial translation |  | 
polymyxin B [reference compound] |  |  | significantly improved survival
